Converted amounts (≈) assume the structure as drawn.
system: Staphylococcus aureus; experiment: Antimicrobial activity against Staphylococcus aureus after 18 to 24 hrs by broth microdilution method; type: functional; conditions: not given

`Cc1cc(NNC(N)=S)nc(SCc2nc3ccccc3[nH]2)n1` and `Cc1cc(NC(C)C)nc(SCc2nc3ccccc3[nH]2)n1` cannot be ordered by MIC: greater than 128 mg/L for the first, greater than 128 mg/L for the second.

`Cc1cc(N2CCCCC2)nc(SCc2nc3ccccc3[nH]2)n1` and `Cc1cc(N2CCNCC2)nc(SCc2nc3ccccc3[nH]2)n1` cannot be ordered by MIC: greater than 128 mg/L for the first, greater than 128 mg/L for the second.

Going from `Cc1cc(N2CCOCC2)nc(SCc2nc3ccccc3[nH]2)n1` to `Cc1cc(N(C)Cc2ccccc2)nc(SCc2nc3ccccc3[nH]2)n1`, the MIC falls from greater than 128 mg/L to 128 mg/L (≈ 341 µM).

Work on `C[C@H]1COc2c(N3CCN(C)CC3)c(F)cc3c(=O)c(C(=O)O)cn1c23.C[C@H]1COc2c(N3CCN(C)CC3)c(F)cc3c(=O)c(C(=O)O)cn1c23.O` [LEVOFLOXACIN] yielded an MIC of 0.5 mg/L.

system: Bacillus subtilis; experiment: Antimicrobial activity against Bacillus subtilis after 18 to 24 hrs by broth microdilution method; type: functional; conditions: not given

`Cc1cc(NNC(N)=S)nc(SCc2nc3ccccc3[nH]2)n1` and `Cc1cc(NC(C)C)nc(SCc2nc3ccccc3[nH]2)n1` cannot be ordered by MIC: greater than 128 mg/L for the first, greater than 128 mg/L for the second.

First: Cc1cc(N2CCCCC2)nc(SCc2nc3ccccc3[nH]2)n1
Second: Cc1cc(N2CCNCC2)nc(SCc2nc3ccccc3[nH]2)n1
The MIC of the first is higher: greater than 128 mg/L for the first, 128 mg/L (≈ 376 µM) for the second.

`Cc1cc(N2CCOCC2)nc(SCc2nc3ccccc3[nH]2)n1` and `Cc1cc(N(C)Cc2ccccc2)nc(SCc2nc3ccccc3[nH]2)n1` cannot be ordered by MIC: greater than 128 mg/L for the first, greater than 128 mg/L for the second.

Compound `C[C@H]1COc2c(N3CCN(C)CC3)c(F)cc3c(=O)c(C(=O)O)cn1c23.C[C@H]1COc2c(N3CCN(C)CC3)c(F)cc3c(=O)c(C(=O)O)cn1c23.O` [LEVOFLOXACIN] has an MIC of 0.25 mg/L.

system: Escherichia coli; experiment: Antimicrobial activity against Escherichia coli after 18 to 24 hrs by broth microdilution method; type: functional; conditions: not given

`Cc1cc(NNC(N)=S)nc(SCc2nc3ccccc3[nH]2)n1` and `Cc1cc(NC(C)C)nc(SCc2nc3ccccc3[nH]2)n1` cannot be ordered by MIC: greater than 128 mg/L for the first, greater than 128 mg/L for the second.

`Cc1cc(N2CCCCC2)nc(SCc2nc3ccccc3[nH]2)n1` and `Cc1cc(N2CCNCC2)nc(SCc2nc3ccccc3[nH]2)n1` cannot be ordered by MIC: greater than 128 mg/L for the first, greater than 128 mg/L for the second.

`Cc1cc(N2CCOCC2)nc(SCc2nc3ccccc3[nH]2)n1` and `Cc1cc(N(C)Cc2ccccc2)nc(SCc2nc3ccccc3[nH]2)n1` cannot be ordered by MIC: greater than 128 mg/L for the first, greater than 128 mg/L for the second.

With `C[C@H]1COc2c(N3CCN(C)CC3)c(F)cc3c(=O)c(C(=O)O)cn1c23.C[C@H]1COc2c(N3CCN(C)CC3)c(F)cc3c(=O)c(C(=O)O)cn1c23.O` [LEVOFLOXACIN] the MIC was 0.125 mg/L.

system: Stenotrophomonas maltophilia; experiment: Antimicrobial activity against Stenotrophomonas maltophilia after 18 to 24 hrs by broth microdilution method; type: functional; conditions: not given

In order of rising MIC:
1. C[C@H]1COc2c(N3CCN(C)CC3)c(F)cc3c(=O)c(C(=O)O)cn1c23.C[C@H]1COc2c(N3CCN(C)CC3)c(F)cc3c(=O)c(C(=O)O)cn1c23.O [LEVOFLOXACIN]  0.25 mg/L
2. Cc1cc(N(C)Cc2ccccc2)nc(SCc2nc3ccccc3[nH]2)n1  16 mg/L (≈ 42.6 µM)
3. Cc1cc(NC(C)C)nc(SCc2nc3ccccc3[nH]2)n1  32 mg/L (≈ 102 µM)
4. Cc1cc(N2CCNCC2)nc(SCc2nc3ccccc3[nH]2)n1  32 mg/L (≈ 94 µM)
5. Cc1cc(N2CCOCC2)nc(SCc2nc3ccccc3[nH]2)n1  32 mg/L (≈ 93.7 µM)
6. Cc1cc(N2CCCCC2)nc(SCc2nc3ccccc3[nH]2)n1  64 mg/L (≈ 189 µM)
7. Cc1cc(NNC(N)=S)nc(SCc2nc3ccccc3[nH]2)n1  128 mg/L (≈ 371 µM)

system: Candida albicans; experiment: Antimicrobial activity against Candida albicans after 48 hrs by broth microdilution method; type: functional; conditions: not given

`Cc1cc(NNC(N)=S)nc(SCc2nc3ccccc3[nH]2)n1` and `Cc1cc(NC(C)C)nc(SCc2nc3ccccc3[nH]2)n1` are the same in MIC: 128 mg/L (≈ 371 µM) for the first, 128 mg/L (≈ 408 µM) for the second.

Compared with `Cc1cc(N2CCCCC2)nc(SCc2nc3ccccc3[nH]2)n1`, `Cc1cc(N2CCNCC2)nc(SCc2nc3ccccc3[nH]2)n1` is higher in MIC: 32 mg/L (≈ 94.3 µM) for the first, greater than 128 mg/L for the second.

First: Cc1cc(N2CCOCC2)nc(SCc2nc3ccccc3[nH]2)n1
Second: Cc1cc(N(C)Cc2ccccc2)nc(SCc2nc3ccccc3[nH]2)n1
The MIC of the first is higher: greater than 128 mg/L for the first, 128 mg/L (≈ 341 µM) for the second.

`OC(Cn1cncn1)(Cn1cncn1)c1ccc(F)cc1F` [FLUCONAZOLE] showed an MIC of 2 mg/L (≈ 6.53 µM).

system: MGC-803; experiment: Cytotoxicity against human MGC803 cells after 72 hrs by MTT assay; type: functional, cell-based; conditions: MGC-803, 72 h

`Cc1cc(NNC(N)=S)nc(SCc2nc3ccccc3[nH]2)n1` and `Cc1cc(NC(C)C)nc(SCc2nc3ccccc3[nH]2)n1` cannot be ordered by IC50: greater than 100 µM for the first, greater than 100 µM for the second.

`Cc1cc(N2CCCCC2)nc(SCc2nc3ccccc3[nH]2)n1` and `Cc1cc(N2CCNCC2)nc(SCc2nc3ccccc3[nH]2)n1` cannot be ordered by IC50: greater than 100 µM for the first, greater than 100 µM for the second.

First: Cc1cc(N2CCOCC2)nc(SCc2nc3ccccc3[nH]2)n1
Second: Cc1cc(N(C)Cc2ccccc2)nc(SCc2nc3ccccc3[nH]2)n1
The IC50 of the first is higher: greater than 100 µM for the first, 31.3 µM for the second.

With `O=c1[nH]cc(F)c(=O)[nH]1` [FLUOROURACIL] the IC50 was 8.13 µM.

system: MCF7; experiment: Cytotoxicity against human MCF7 cells after 72 hrs by MTT assay; type: functional, cell-based; conditions: MCF7, 72 h

`Cc1cc(NNC(N)=S)nc(SCc2nc3ccccc3[nH]2)n1` and `Cc1cc(NC(C)C)nc(SCc2nc3ccccc3[nH]2)n1` cannot be ordered by IC50: greater than 100 µM for the first, greater than 100 µM for the second.

`Cc1cc(N2CCCCC2)nc(SCc2nc3ccccc3[nH]2)n1` and `Cc1cc(N2CCNCC2)nc(SCc2nc3ccccc3[nH]2)n1` cannot be ordered by IC50: greater than 100 µM for the first, greater than 100 µM for the second.

`Cc1cc(N2CCOCC2)nc(SCc2nc3ccccc3[nH]2)n1` and `Cc1cc(N(C)Cc2ccccc2)nc(SCc2nc3ccccc3[nH]2)n1` cannot be ordered by IC50: greater than 100 µM for the first, greater than 100 µM for the second.

With `O=c1[nH]cc(F)c(=O)[nH]1` [FLUOROURACIL] the IC50 was 7.76 µM.

system: not listed separately; experiment: Cytotoxicity against human EC109 cells after 72 hrs by MTT assay; type: functional, cell-based; conditions: ECa-109, 72 h

`Cc1cc(NNC(N)=S)nc(SCc2nc3ccccc3[nH]2)n1` and `Cc1cc(NC(C)C)nc(SCc2nc3ccccc3[nH]2)n1` cannot be ordered by IC50: greater than 100 µM for the first, greater than 100 µM for the second.

`Cc1cc(N2CCCCC2)nc(SCc2nc3ccccc3[nH]2)n1` and `Cc1cc(N2CCNCC2)nc(SCc2nc3ccccc3[nH]2)n1` cannot be ordered by IC50: greater than 100 µM for the first, greater than 100 µM for the second.

`Cc1cc(N2CCOCC2)nc(SCc2nc3ccccc3[nH]2)n1` and `Cc1cc(N(C)Cc2ccccc2)nc(SCc2nc3ccccc3[nH]2)n1` cannot be ordered by IC50: greater than 100 µM for the first, greater than 100 µM for the second.

Work on `O=c1[nH]cc(F)c(=O)[nH]1` [FLUOROURACIL] yielded an IC50 of 24.1 µM.

system: PC-3; experiment: Cytotoxicity against human PC3 cells after 72 hrs by MTT assay; type: functional, cell-based; conditions: PC-3, 72 h

`Cc1cc(NNC(N)=S)nc(SCc2nc3ccccc3[nH]2)n1` and `Cc1cc(NC(C)C)nc(SCc2nc3ccccc3[nH]2)n1` cannot be ordered by IC50: greater than 100 µM for the first, greater than 100 µM for the second.

`Cc1cc(N2CCCCC2)nc(SCc2nc3ccccc3[nH]2)n1` and `Cc1cc(N2CCNCC2)nc(SCc2nc3ccccc3[nH]2)n1` cannot be ordered by IC50: greater than 100 µM for the first, greater than 100 µM for the second.

`Cc1cc(N2CCOCC2)nc(SCc2nc3ccccc3[nH]2)n1` and `Cc1cc(N(C)Cc2ccccc2)nc(SCc2nc3ccccc3[nH]2)n1` cannot be ordered by IC50: greater than 100 µM for the first, greater than 100 µM for the second.

For `O=c1[nH]cc(F)c(=O)[nH]1` [FLUOROURACIL], the IC50 was 4.68 µM.

— ChEMBL document CHEMBL3286199, “Synthesis, in vitro antimicrobial and cytotoxic activities of novel pyrimidine-benzimidazol combinations” (Bioorg Med Chem Lett, 2014)
